This is an account of results in ChEMBL document CHEMBL4321865, “Discovery of Novel Inhibitors of LpxC Displaying Potent in Vitro Activity against Gram-Negative Bacteria” (J Med Chem, 2020).

Converted amounts (≈) assume the structure as drawn. Where only a bound is given, the exact number is not on record here.

A short description of series [1]: physchem. The note with it: DMSO, pH 4.
Description: Solubility of the compound in DMSO at pH 4 incubated for 24 hrs by LC-UV method
Series [2] is described as follows: physchem. As to conditions: DMSO, pH 7.
Description: Solubility of the compound in DMSO at pH 7 incubated for 24 hrs by LC-UV method
The test system of series [3] is Pseudomonas aeruginosa. In words: microbe, parasite or virus in culture. The note with it: ATCC 27853.
Description: Antimicrobial activity against Pseudomonas aeruginosa ATCC 27853 by broth microdilution method
Series [4] concerns T1, UDP-3-O-acyl-N-acetylglucosamine deacetylase (Escherichia coli K-12), P0A725 [C125S].
T1 sequence (whole entry): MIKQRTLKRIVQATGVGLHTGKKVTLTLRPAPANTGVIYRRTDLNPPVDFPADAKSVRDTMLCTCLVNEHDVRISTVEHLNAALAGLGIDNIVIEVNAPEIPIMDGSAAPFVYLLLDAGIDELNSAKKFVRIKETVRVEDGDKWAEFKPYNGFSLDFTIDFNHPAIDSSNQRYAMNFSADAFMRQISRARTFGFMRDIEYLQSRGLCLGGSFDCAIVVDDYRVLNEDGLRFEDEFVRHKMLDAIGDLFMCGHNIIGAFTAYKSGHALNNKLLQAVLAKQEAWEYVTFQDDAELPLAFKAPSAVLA

Series [5] in a line: physchem. The note with it: n-octanol/phosphate buffered saline, pH 7.4.
Description: n-Octanol/phosphate buffered saline partition coefficient, log D of the compound at pH 7.4 by LC-UV method
For series [6], the system named is Pseudomonas aeruginosa. In words: microbe, parasite or virus in culture. The note with it: PAO1.
Description: Antimicrobial activity against wild-type Pseudomonas aeruginosa PAO1 by broth microdilution method
For a further series, the system named is Klebsiella pneumoniae. In words: microbe, parasite or virus in culture. As to conditions: T 6474.
The subject of a further series is Escherichia coli. Nature of the series: microbe, parasite or virus in culture. As to conditions: ATCC 25922.
Series [7] can be described thus: physchem. As to conditions: DMSO, pH 9.
Description: Solubility of the compound in DMSO at pH 9 incubated for 24 hrs by LC-UV method
In series [8] the test system is T2, UDP-3-O-acyl-N-acetylglucosamine deacetylase (Pseudomonas aeruginosa (strain ATCC 15692 / PAO1 / 1C / PRS 101 / LMG12228)), P47205 [C40S].
T2 sequence (whole entry): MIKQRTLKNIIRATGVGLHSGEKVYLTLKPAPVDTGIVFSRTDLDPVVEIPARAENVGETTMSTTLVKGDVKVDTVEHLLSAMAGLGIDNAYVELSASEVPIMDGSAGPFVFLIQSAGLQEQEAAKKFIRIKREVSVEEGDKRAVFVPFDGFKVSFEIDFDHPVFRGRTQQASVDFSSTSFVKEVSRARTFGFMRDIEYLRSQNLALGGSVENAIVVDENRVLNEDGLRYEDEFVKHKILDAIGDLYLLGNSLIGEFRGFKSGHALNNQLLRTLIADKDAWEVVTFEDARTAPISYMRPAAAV

Description for Klebsiella pneumoniae: Antibacterial activity against multi-drug resistant Klebsiella pneumoniae T 6474 by broth microdilution method

Take `CC(C)(O)C#CC#Cc1ccc2c(c1)CN(CC[C@](C)(C(=O)NO)S(C)(=O)=O)C2=O`: the solubility at 24 h in the series “physchem [1]” was determined as 71 µg/mL (≈ 164 µM); in “physchem [2]”, 97 µg/mL (≈ 224 µM); in “physchem [7]”, 564 µg/mL (≈ 1300 µM). The MIC in the series with Pseudomonas aeruginosa [3] turned out to be 2 µg/mL (≈ 4.62 µM); against Pseudomonas aeruginosa [6], 2 µg/mL (≈ 4.62 µM); against Klebsiella pneumoniae it was 2 µg/mL (≈ 4.62 µM); in the series on Escherichia coli, 1 µg/mL (≈ 2.31 µM). The ΔTm in series [4] amounted to 8.5 °C; in [8], 12.6 °C. Moreover, the logD in the series “physchem [5]” worked out at 1.2.
`C[C@@](CCN1Cc2cc(C#Cc3ccc(COC(=O)N4CCC(O)CC4)cc3)cn2C1=O)(C(=O)NO)S(C)(=O)=O`: the solubility at 24 h in the series “physchem [1]” is under 1 µg/mL; in the series “physchem [2]”, 15 µg/mL (≈ 26.2 µM); in “physchem [7]”, 251 µg/mL (≈ 438 µM). Besides, the MIC in the series with Pseudomonas aeruginosa [3] was found to be 2 µg/mL (≈ 3.49 µM); in the series on Pseudomonas aeruginosa [6] it was 2 µg/mL (≈ 3.49 µM); with Klebsiella pneumoniae, 0.5 µg/mL (≈ 0.873 µM); in the series with Escherichia coli it was 0.25 µg/mL (≈ 0.437 µM). Besides, the ΔTm is 11.8 °C in series [4] and 14.2 °C in series [8]. Moreover, the logD in the series “physchem [5]” came to 1.7.
In the case of `C[C@@](CCN1Cc2cc(C#Cc3ccc(C4(O)COC4)cc3)sc2C1=O)(C(=O)NO)S(C)(=O)=O`, the solubility at 24 h in “physchem [1]” is 114 µg/mL (≈ 226 µM); in “physchem [2]”, over 850 µg/mL; in the series “physchem [7]”, over 850 µg/mL. In addition, the MIC was found to be 0.5 µg/mL (≈ 0.991 µM) in the series with Pseudomonas aeruginosa [3], 2 µg/mL (≈ 3.96 µM) in the series with Pseudomonas aeruginosa [6], 0.5 µg/mL (≈ 0.991 µM) against Klebsiella pneumoniae and 0.12 µg/mL (≈ 0.238 µM) in the series with Escherichia coli. For the same compound, the ΔTm amounted to 11.4 °C in series [4] and 14.3 °C in [8]. In the series “physchem [5]”, the logD is 1.5.
With `C[C@@](CCN1Cc2cc(C#Cc3ccc([C@H]4C[C@@H]4CO)cc3)cn2C1=O)(C(=O)NO)S(C)(=O)=O`, the solubility at 24 h was 11 µg/mL (≈ 22.7 µM) in the series “physchem [1]”, 24 µg/mL (≈ 49.4 µM) in the series “physchem [2]” and 170 µg/mL (≈ 350 µM) in “physchem [7]”. Also, the MIC against Pseudomonas aeruginosa [3] is 0.5 µg/mL (≈ 1.03 µM); against Pseudomonas aeruginosa [6], 1 µg/mL (≈ 2.06 µM); against Klebsiella pneumoniae, at most 0.06 µg/mL; in the series on Escherichia coli it was at most 0.06 µg/mL. Besides, the ΔTm in series [4] was 12.1 °C; in [8], 13.4 °C. The compound further showed a logD in “physchem [5]” of 1.4.
As for `C[C@@](CCN1Cc2cc(C#CC#C[C@H](O)CO)cn2C1=O)(C(=O)NO)S(C)(=O)=O`, the MIC with Pseudomonas aeruginosa [3] stood at 4 µg/mL (≈ 9.45 µM); against Pseudomonas aeruginosa [6], 8 µg/mL (≈ 18.9 µM); in the series with Klebsiella pneumoniae, 8 µg/mL (≈ 18.9 µM); against Escherichia coli it was 8 µg/mL (≈ 18.9 µM). For the same compound, the figures for the ΔTm in [4] and in series [8] were 7.3 °C and 10.3 °C, respectively.
Compound `C[C@@](CCN1Cc2cc(C#CC#C[C@@H]3C[C@H]3CO)cn2C1=O)(C(=O)NO)S(C)(=O)=O` gave a solubility at 24 h in “physchem [1]” of 600 µg/mL (≈ 1380 µM). Also, the MIC with Pseudomonas aeruginosa [3] amounted to 0.5 µg/mL (≈ 1.15 µM); with Pseudomonas aeruginosa [6], 0.5 µg/mL (≈ 1.15 µM); with Klebsiella pneumoniae, 0.25 µg/mL (≈ 0.577 µM); in the series with Escherichia coli, 0.12 µg/mL (≈ 0.277 µM). Also, the figures for the ΔTm in series [4] and in series [8] were 10.8 °C and 13.6 °C, respectively.
For the compound `C[C@@](CCN1Cc2cc(C#CC#CCNS(C)(=O)=O)cn2C1=O)(C(=O)NO)S(C)(=O)=O`, the MIC against Pseudomonas aeruginosa [3] came out at 4 µg/mL (≈ 8.5 µM); against Pseudomonas aeruginosa [6], 1 µg/mL (≈ 2.13 µM); against Klebsiella pneumoniae it was 4 µg/mL (≈ 8.5 µM); against Escherichia coli, 2 µg/mL (≈ 4.25 µM). In addition, the ΔTm in [4] came to 8 °C; in series [8], 10.8 °C.
Consider `C[C@@](CCN1Cc2cc(C#CC#CC3(O)COC3)ccc2C1=O)(C(=O)NO)S(C)(=O)=O`, for which the MIC in the series with Pseudomonas aeruginosa [3] came to 8 µg/mL (≈ 17.9 µM); with Pseudomonas aeruginosa [6] it was 4 µg/mL (≈ 8.96 µM); in the series on Klebsiella pneumoniae it was 8 µg/mL (≈ 17.9 µM); in the series with Escherichia coli, 16 µg/mL (≈ 35.8 µM). Further, the ΔTm came to 7 °C in series [4] and 11.6 °C in series [8].
Regarding `C[C@@](CCN1Cc2cc(C#Cc3ccc(CN4CCOCC4)cc3)cn2C1=O)(C(=O)NO)S(C)(=O)=O`, the solubility at 24 h stood at 802 µg/mL (≈ 1560 µM) in the series “physchem [1]”, 68 µg/mL (≈ 132 µM) in “physchem [2]” and 621 µg/mL (≈ 1210 µM) in “physchem [7]”. The MIC against Pseudomonas aeruginosa [3] came to 1 µg/mL (≈ 1.94 µM); in the series with Pseudomonas aeruginosa [6] it was 1 µg/mL (≈ 1.94 µM); in the series on Klebsiella pneumoniae, 0.25 µg/mL (≈ 0.486 µM). In addition, the values for the ΔTm in series [4] and in series [8] were 11.9 °C and 13.6 to 13.9 °C, respectively. The compound also showed a logD in “physchem [5]” of 1.6.

In general, solubility refers to the concentration that dissolves in the medium under given conditions. What is called ΔTm is the shift of the melting midpoint relative to a reference. For orientation: logD means the decadic logarithm of the distribution of all forms, ionised or not, between an organic phase and buffer at a given pH. Read a high logD as a more lipophilic compound.
